# Measurements from patent publication EP3212201B1, “NUCLEOSIDE KINASE INHIBITORS” (BCI Pharma, priority 2014, dated 2016).
# How the values were obtained:
# Test in all cases: FRET-based coupled-enzyme protein kinase inhibition assay
# Assay type in all cases: biochemical
# Conditions in all cases: compound at 10 µM, 1% DMSO
# [1] = molecular target: MAPK1 (ERK2) (Homo sapiens, UniProt P28482)
# Experimental: (§1) A biochemical assay was then performed in order to measure the protein kinase inhibition. It employed a fluorescence-based coupled-enzyme format and was based on the differential sensitivity of phosphorylated and non-phosphorylated peptides to proteolytic cleavage.
# (§2) Peptide substrates were labeled with two fluorophores. The two fluorohores used were coumarin (donor) and fluorecein (acceptor), and each of the peptides was bearing one at one end, and one at the other end, which made up fluorescence resonance energy transfer (FRET) pair peptides.
# (§3) In a primary reaction, the FRET-peptides were submitted to a phosphorylation reaction, in which one of adenosine triphosphate (ATP)'s phosphate groups was transferred to the peptide in the presence of kinase. When kinase inhibition takes place, the peptide will not be phosphorylated. In a secondary reaction, both the phosphorylated FRET-peptides and the non-phosphorylated FRET-peptides were reacted with a development reagent. It has been observed that non-phosphorylated FRET-peptides were cleaved, whereas the phosphorylted FRET-peptide remained intact.
# (§4) Cleavage disrupts FRET between the donor (i.e., coumarin) and acceptor (i.e., fluorescein) fluorophores on the FRET-peptide, whereas uncleaved, phosphorylated FRET-peptides maintain FRET. A ratiometric method, which calculates the Emission Ratio of donor emission to acceptor emission after excitation of the donor fluorophore at 400 nm, is used to quantitate reaction progress, as shown in the equation below. [formula]
# (§5) A significant benefit of this ratiometric method for quantitating reaction progress is the elimination of well-to-well variations in FRET-peptide concentration and signal intensities. As a result, the assay yields very high Z'factor values (>0.7) at a low percent phosphorylation. Both cleaved and uncleaved FRET-peptides contribute to the fluorescence signals and therefore to the Emission Ratio. The extent of phosphorylation of the FRET-peptide can be calculated from the Emission Ratio. The Emission Ratio will remain low if the FRET-peptide is phosphorylated (i.e., no kinase inhibition) and will be high if the FRET-peptide is non-phosphorylated (i.e., kinase inhibition).
# (§6) The Test Compounds were screened in 1% DMSO. For 10 point titrations, 3-fold serial dilutions were prepared from the starting concentration.
# (§7) All Peptide/Kinase Mixtures were diluted to a 2X working concentration in the appropriate Kinase Buffer (50 mM HEPES pH 7.5, 0.01% BRIJ-35, 10 mM MgCl2, 1 mM […]).
# (§8) All ATP Solutions were diluted to a 4X working concentration in Kinase Buffer. ATP Km apparent was previously determined using another assay.
# (§9) 2.5 µL - 4X Test Compound or 100 nL 100X plus 2.4 µL kinase buffer were mixed together with 2. 5 µL - 2X Peptide/Kinase Mixture and 3. 2.5 µL - 4X ATP Solution.
# (§10) The solution was plate-shaked for 30 seconds, then incubated 60 minutes at room temperature for kinase reaction. 5 µL of Development Reagent Solution were then added, followed by a 30-second plate shake and a 60-minute Development Reaction incubation at room temperature. The results were read on a fluorescence plate reader and the data was analyzed.
# (§11) The compounds that show the highest Emission Ratio are the ones that also show the highest protein kinase inhibition properties.
# [2] = molecular target: ABL1 (Homo sapiens, UniProt P00519)
# Experimental: as §1, §2, §3, §4, §5, §6, §7, §8, §9, §10, §11
# [3] = molecular target: T1, FLT3 (Homo sapiens, UniProt P36888)
# T1 sequence (P36888 27-993): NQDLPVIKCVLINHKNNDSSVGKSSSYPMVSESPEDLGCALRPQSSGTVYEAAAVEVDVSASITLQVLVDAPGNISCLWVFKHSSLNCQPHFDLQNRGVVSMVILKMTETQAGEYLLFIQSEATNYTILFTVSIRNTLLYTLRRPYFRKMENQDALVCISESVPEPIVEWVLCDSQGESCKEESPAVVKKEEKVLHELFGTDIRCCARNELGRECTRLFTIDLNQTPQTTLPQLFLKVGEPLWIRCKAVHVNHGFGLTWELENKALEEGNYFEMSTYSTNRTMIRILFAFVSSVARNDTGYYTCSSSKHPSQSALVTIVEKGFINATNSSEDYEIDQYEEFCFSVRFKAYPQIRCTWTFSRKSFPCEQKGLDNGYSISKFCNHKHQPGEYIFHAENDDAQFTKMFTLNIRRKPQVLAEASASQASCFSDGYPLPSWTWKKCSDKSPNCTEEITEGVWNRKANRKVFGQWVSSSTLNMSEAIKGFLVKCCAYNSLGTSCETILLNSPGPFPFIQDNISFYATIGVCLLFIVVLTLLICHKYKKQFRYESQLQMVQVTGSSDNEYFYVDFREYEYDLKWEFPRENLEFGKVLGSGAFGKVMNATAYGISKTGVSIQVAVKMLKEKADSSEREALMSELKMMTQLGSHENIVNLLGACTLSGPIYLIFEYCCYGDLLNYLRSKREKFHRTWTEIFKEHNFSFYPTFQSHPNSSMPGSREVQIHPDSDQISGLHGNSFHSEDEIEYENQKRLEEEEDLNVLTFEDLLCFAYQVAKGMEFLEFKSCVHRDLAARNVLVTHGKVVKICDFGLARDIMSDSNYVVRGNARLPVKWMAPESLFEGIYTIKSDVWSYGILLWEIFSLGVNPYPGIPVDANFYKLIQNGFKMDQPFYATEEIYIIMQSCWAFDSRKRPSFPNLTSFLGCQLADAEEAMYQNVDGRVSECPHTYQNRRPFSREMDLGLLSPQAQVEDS
# Experimental: as §1, §2, §3, §4, §5, §6, §7, §8, §9, §10, §11
# [4] = molecular target: T2, DYRK3 (Homo sapiens, UniProt O43781)
# T2 sequence (O43781 1-588): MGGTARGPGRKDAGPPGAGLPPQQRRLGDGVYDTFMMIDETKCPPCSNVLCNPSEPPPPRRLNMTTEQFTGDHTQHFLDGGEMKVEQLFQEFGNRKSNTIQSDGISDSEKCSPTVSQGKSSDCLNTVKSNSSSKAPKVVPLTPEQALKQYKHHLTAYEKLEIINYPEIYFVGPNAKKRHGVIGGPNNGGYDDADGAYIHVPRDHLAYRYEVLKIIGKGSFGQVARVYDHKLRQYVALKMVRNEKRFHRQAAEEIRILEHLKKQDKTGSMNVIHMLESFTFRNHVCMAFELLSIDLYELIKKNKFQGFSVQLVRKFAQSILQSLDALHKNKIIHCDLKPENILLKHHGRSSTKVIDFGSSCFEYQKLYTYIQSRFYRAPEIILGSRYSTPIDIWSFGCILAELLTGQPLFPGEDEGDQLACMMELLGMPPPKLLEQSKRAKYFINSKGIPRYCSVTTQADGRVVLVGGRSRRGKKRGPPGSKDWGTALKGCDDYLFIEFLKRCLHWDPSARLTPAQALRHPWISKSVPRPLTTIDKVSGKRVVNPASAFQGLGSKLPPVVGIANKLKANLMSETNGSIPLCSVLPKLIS
# Experimental: as §1, §2, §3, §4, §5, §6, §7, §8, §9, §10, §11
# Chain of ABL1 (P00519 whole entry, species assumed): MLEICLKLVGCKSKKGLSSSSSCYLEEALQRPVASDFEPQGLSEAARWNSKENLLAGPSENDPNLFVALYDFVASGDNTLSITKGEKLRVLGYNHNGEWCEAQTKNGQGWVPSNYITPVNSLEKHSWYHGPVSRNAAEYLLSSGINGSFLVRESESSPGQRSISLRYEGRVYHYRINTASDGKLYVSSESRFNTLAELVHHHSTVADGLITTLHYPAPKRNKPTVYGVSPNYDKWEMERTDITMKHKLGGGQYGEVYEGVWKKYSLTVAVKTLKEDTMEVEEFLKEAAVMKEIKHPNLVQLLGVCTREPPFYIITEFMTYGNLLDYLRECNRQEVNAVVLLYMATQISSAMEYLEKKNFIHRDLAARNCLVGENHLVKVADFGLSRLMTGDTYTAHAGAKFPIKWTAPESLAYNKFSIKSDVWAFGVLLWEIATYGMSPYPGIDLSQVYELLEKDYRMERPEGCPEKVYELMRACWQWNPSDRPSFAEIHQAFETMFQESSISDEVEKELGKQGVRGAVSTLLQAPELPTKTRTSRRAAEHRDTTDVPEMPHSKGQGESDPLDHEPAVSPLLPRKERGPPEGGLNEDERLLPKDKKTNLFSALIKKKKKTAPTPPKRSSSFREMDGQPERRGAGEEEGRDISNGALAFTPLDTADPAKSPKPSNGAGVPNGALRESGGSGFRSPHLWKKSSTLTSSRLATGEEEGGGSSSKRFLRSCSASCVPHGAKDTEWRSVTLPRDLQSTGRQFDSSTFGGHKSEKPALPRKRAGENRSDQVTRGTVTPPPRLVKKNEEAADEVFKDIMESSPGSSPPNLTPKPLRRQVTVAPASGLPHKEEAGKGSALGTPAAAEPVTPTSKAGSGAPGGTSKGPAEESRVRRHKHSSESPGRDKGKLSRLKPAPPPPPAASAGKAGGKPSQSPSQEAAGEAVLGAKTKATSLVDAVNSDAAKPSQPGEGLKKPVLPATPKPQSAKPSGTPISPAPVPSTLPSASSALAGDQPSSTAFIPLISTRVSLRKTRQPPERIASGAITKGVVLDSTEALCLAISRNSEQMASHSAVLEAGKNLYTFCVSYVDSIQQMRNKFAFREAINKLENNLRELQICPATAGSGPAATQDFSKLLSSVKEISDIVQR
# Chain of MAPK1 (ERK2) (P28482 whole entry, species assumed): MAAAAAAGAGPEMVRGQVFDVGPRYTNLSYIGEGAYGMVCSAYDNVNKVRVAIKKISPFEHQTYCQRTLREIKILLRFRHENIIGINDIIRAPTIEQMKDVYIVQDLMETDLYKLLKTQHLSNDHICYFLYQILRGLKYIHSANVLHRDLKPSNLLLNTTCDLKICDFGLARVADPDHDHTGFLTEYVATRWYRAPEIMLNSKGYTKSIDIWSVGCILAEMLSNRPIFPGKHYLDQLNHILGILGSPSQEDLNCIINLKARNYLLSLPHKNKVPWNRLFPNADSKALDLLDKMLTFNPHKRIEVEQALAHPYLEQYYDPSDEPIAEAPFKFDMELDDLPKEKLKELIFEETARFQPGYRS
inhibition at 10 µM [1],inhibition at 10 µM [2],inhibition at 10 µM [3],inhibition at 10 µM [4],Structure (SMILES)
7%,13%,6%,12%,Nc1ncnc2c1ncn2[C@@H]1O[C@H](COC(=O)NCCCc2nc3ccccc3[nH]2)[C@@H](O)[C@H]1O [Compound C1]
8%,11%,19%,5%,C[C@@H](NC(=O)OC[C@H]1O[C@@H](n2cnc3c(N)ncnc32)[C@H](O)[C@@H]1O)c1ccc(Cl)cc1 [Compound C4]
16%,22%,12%,31%,Nc1ncnc2c1ncn2[C@@H]1O[C@H](COC(=O)NC[C@H](O)CO)[C@@H](O)[C@H]1O [Compound C8]
11%,-2%,8%,11%,Nc1ncnc2c1ncn2[C@@H]1O[C@H](COC(=O)N2CCC[C@H]2CO)[C@@H](O)[C@H]1O [Compound C9]
8%,10%,13%,8%,Nc1ncnc2c1ncn2[C@@H]1O[C@H](COC(=O)N[C@@H]2CCN(Cc3ccccc3)C2)[C@@H](O)[C@H]1O [Compound C10]
10%,0%,12%,9%,Nc1ncnc2c1ncn2[C@@H]1O[C@H](COC(=O)N2CCN(Cc3ccccc3)CC2CO)[C@@H](O)[C@H]1O (stereo partly shown) [Compound C13]
7%,-3%,23%,9%,CC(C)N1CCC(NC(=O)OC[C@H]2O[C@@H](n3cnc4c(N)ncnc43)[C@H](O)[C@@H]2O)CC1 [Compound C19]
9%,-5%,9%,3%,Nc1ncnc2c1ncn2[C@@H]1O[C@H](COC(=O)NCCN2CCCC2=O)[C@@H](O)[C@H]1O [Compound C22]
11%,2%,18%,2%,Nc1ncnc2c1ncn2[C@@H]1O[C@H](COC(=O)N2CCN(CCc3ccccc3)CC2)[C@@H](O)[C@H]1O [Compound C26]
9%,10%,10%,4%,CN1CCN(CCNC(=O)OC[C@H]2O[C@@H](n3cnc4c(N)ncnc43)[C@H](O)[C@@H]2O)CC1 [Compound C46]
9%,-2%,20%,7%,Nc1ncnc2c1ncn2[C@@H]1O[C@H](COC(=O)N2CCC(Cc3ccc(F)cc3)C2)[C@@H](O)[C@H]1O (stereo partly shown) [Compound C66]
16%,-7%,7%,6%,N#CCCN1CCN(C(=O)OC[C@H]2O[C@@H](n3cnc4c(N)ncnc43)[C@H](O)[C@@H]2O)CC1 [Compound C70]
8%,-2%,12%,7%,CN(C)CCNC(=O)OC[C@H]1O[C@@H](n2cnc3c(N)ncnc32)[C@H](O)[C@@H]1O [Compound C85]
9%,-3%,10%,3%,Nc1ncnc2c1ncn2[C@@H]1O[C@H](COC(=O)N2CCN(C(=O)N3CCOCC3)CC2)[C@@H](O)[C@H]1O [Compound C89]
16%,15%,13%,5%,CS(=O)(=O)N1CC2(CCN(C(=O)OC[C@H]3O[C@@H](n4cnc5c(N)ncnc54)[C@H](O)[C@@H]3O)CC2)c2ccccc21 [Compound C98]
13%,1%,9%,12%,Nc1ncnc2c1ncn2[C@@H]1O[C@H](COC(=O)N2CCS(=O)(=O)CC2)[C@@H](O)[C@H]1O [Compound C100]
